Values of other authors in article PMC10410440, “Preclinical PK investigation of a novel IDO1/TDO dual inhibitor—SHR9146 in mouse plasma and tissues by LC-MS/MS” (Frontiers in Oncology, 2023).

Test system: advanced solid tumors
Parameters: method as in doi:10.1200/JCO.2021.39.15_suppl.3101
Details: SHR9146 plus camrelizumab in combination with/without apatinib; cited from earlier work

**Q.** Which “antitumor activity and safety in patients” value does the source give for `OCCn1cc(-c2ccc(N3CCC([C@H]4c5c(F)cccc5-c5cncn54)CC3)cc2)cn1` [SHR9146] here?
**A.** The value was “promising antitumor activity with acceptable safety”.
